According to patent US10124033B2, “Peptides and methods of use” (BAXALTA INCORPORATED, priority 2014, dated 2018):
Where two headings read alike, the source gives them in different places. Residues, ends and D or L forms follow the SMILES beside them.

Key:
[1] = biological target: T1, Protein S/APC cofactor activity (Homo sapiens, UniProt P07225); test: CAT assay in pooled normal plasma supplemented with 3 nM APC; assay type: biochemical; conditions: 6 pM TF, 15 μM phospholipids
T1 construct: host or cells: plasma
T1 sequence (P07225 41-676 limits assumed): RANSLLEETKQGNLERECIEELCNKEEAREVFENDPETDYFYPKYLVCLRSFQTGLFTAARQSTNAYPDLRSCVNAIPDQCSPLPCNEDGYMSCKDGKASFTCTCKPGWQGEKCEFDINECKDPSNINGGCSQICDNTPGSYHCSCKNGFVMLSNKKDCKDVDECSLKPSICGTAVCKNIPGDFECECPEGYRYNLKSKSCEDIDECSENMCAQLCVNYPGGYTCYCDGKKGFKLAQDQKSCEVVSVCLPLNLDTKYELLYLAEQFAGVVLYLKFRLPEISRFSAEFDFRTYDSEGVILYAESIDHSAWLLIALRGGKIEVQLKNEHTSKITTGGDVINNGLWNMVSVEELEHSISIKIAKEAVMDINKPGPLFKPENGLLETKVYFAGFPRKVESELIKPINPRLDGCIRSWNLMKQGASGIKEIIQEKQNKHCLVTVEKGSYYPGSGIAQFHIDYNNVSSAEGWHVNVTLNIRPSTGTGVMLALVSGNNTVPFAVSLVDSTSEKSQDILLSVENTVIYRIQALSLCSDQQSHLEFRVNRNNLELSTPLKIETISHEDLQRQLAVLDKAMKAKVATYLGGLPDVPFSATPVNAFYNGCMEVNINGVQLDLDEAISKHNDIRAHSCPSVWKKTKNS
Experimental: Peptides also were tested for improvement of Protein S/APC-dependent thrombin generation in hemophilic plasma using a CAT assay. Protein S enhances the anticoagulation of APC in plasma. The CAT assay quantifies the effect of Protein S on APC-mediated thrombin generation initiated via the extrinsic coagulation pathway (Nicolaes, Blood Coagul. Fibrinolysis, 8:28 (1997)). APC (35 nM) and Protein S (25 nM) was added to Protein 5-depleted plasma, and plasma samples were incubated with high titer heat inactivated anti-human FVIII plasma raised in goat (4490 BU/ml; Baxter BioScience, Vienna, Austria; 50 BU/ml final plasma concentration). Thrombin formation in plasma was followed by calibrated automated thrombography (CAT) in a Fluoroskan Ascent® reader (Thermo Labsystems, Helsinki, Finland) and quantified via the thrombin peak-height. Thrombin generation was determined at high tissue factor (TF) concentration in the absence and in the presence of APC at a concentration that reduces the peak height to 20%. The inhibitory effect of peptides described herein on the APC cofactor activity of Protein S (PS) in plasma was measured in FVIII-inhibited pooled normal plasma supplemented with APC. Complete (100%) Protein S/APC inhibition is the height of the thrombin peak without addition of APC. Lack of (0%) PS/APC inhibition correlates to the thrombin peak-height value with a certain amount of APC. Peptides were ranked by their normalized values in comparison to the mean of wild-type controls including SD at two defined peptide concentrations (EC50 and EC90). […] For the assays, pooled normal plasma was supplemented with 3 nM APC and triggered with 6 pM TF, and 15 μM phospholipids (DOPC/POPS 80/20). Stock APC was diluted with TF-PL-MIX to 24 nM (plasma concentration: 3 nM).

[2] = plasma stability in pooled normal human plasma; assay type: in vitro ADME; conditions: pooled normal human plasma, 37° C., 6 hours
Experimental: (§1) Affinity and activity of all 18 peptides was improved compared to parent JBS2572. […] Activity and stability were improved up to 1.5-fold. Plasma stability was determined in pooled normal human plasma and mouse plasma at 37° C.; exemplary results also are provided in Table 3.

[3] = biological target: T2, human full-length Protein S (Homo sapiens, UniProt P07225); test: Biacore (surface plasmon resonance) on immobilized Protein S; assay type: binding; conditions: Biacore; for koff / kon: Table 3; for Kd: affinity-matured and modified peptides, read-out: KD
T2 construct: using human full-length Protein S and human GAS6
T2 sequence (P07225 41-676 limits assumed): T1 sequence (P07225 41-676 limits assumed)
Experimental: (§2) Protein S affinity also was determined via Biacore (Biacore 3000 or Biacore T200) using human full-length Protein S and human GAS6. Briefly, 1000 RU of Protein S or GAS6 were immobilized on a CMS chip. In order to probe the kinetics of Protein S binding peptides to Protein S, the peptides were injected at various concentrations in a HBS-buffer containing 3 mM CaCl2 and 1% DMSO to the flow cell and allowed to interact with the immobilized proteins on the sensor chip. The chip could be regenerated with 4 M MgCl2 in HBS-buffer. Sensorgrams were fitted to a Langmuir binding model for the determination of kon and koff and the calculation of KD. Peptides were tested on their specificity to Protein S with peptide binding studies on the anti-target GAS6.

[4] = plasma stability in mouse plasma; assay type: in vitro ADME; conditions: 37° C.
Experimental: as §1

human GAS6 = biological target: T3, human GAS6 (Homo sapiens, UniProt Q14393); test: Biacore binding to anti-target GAS6; conditions: 1 μM peptide; sensorgrams reviewed visually
T3 sequence (Q14393 31-678): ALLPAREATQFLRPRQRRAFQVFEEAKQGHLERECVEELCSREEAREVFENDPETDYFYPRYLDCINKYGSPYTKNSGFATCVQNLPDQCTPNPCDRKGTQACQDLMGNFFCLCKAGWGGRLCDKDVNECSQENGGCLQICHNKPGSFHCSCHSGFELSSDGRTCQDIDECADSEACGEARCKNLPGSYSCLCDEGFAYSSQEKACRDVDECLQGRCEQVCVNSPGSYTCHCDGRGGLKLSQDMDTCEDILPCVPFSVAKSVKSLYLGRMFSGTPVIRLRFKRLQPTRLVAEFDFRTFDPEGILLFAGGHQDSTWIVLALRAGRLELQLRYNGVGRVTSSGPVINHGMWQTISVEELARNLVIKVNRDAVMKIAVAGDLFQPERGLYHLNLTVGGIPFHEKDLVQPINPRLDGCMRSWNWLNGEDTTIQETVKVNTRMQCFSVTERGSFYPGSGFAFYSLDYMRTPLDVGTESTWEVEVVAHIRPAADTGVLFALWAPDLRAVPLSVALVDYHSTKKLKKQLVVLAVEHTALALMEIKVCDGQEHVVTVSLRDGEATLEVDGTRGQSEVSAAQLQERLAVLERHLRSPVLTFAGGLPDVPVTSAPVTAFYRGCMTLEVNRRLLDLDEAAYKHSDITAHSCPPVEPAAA
Experimental: as §2
Interactions with the anti-target GAS6 were measured via Biacore (surface plasmon resonance) (see Example 2). The maximum signal from the interaction of the peptides with human GAS6 was much lower than the signals obtained with Protein S as interaction partner. Kinetic analysis of the low GAS6 binding signals was error prone, and sensorgrams were reviewed visually to estimate anti-target binding. […] The affinity of JBS2572 for the anti-target was at least 10 times less (indeed, at least 150 times less) than the affinity of the peptides for human Protein S. The data provided by this example confirm that peptides described herein specifically bind Protein S.

Compound | EC50 [1] [pM] | koff ([3]; read-out: koff) [s⁻¹] | kon ([3]; read-out: kon) [M⁻¹ s⁻¹] | Kd [3] [pM] | binding to GAS6 (human GAS6) | koff [3] [s⁻¹] | kon [3] [M⁻¹ s⁻¹] | Stability in human plasma; 6 hours [%] [2] [%] | Stability in mouse plasma; 4 hours [%] [4] [%]
JBS3318: JBS3319 conjugated to 40 kD PEG moiety (Ac-EYYVSAGWYDYNTDTYYEFEC-NH2; not fully specified (residue 21)) |  |  |  |  | not to interact | 0.000213 | 152000 | 114 ± 8 | 102 ± 20
JBS3321: tetramer of JBS3319 monomers together with a four arm 10 kD PEG moiety (Ac-EYYVSAGWYDYNTDTYYEFEC-NH2; not fully specified (residue 21); also: tetramer: four chains joined through C-terminal Cys maleimide to a four-arm 10 kD PEG core) |  |  |  |  |  | 3.88e-05 | 1.58e+06 | 99 ± 6 | 94 ± 12
JBS3322: JBS3206 monomer comprising a 40 kD PEG moiety (Ac-EYIVTAGWYDYNKDIYYEFKC-NH2; not fully specified (residue 21)) |  |  |  |  | not to interact | 0.000278 | 78000 | 131 ± 14 | 91 ± 26

Second part, led by results:

EC50 [1] [pM] | koff ([3]; read-out: koff) [s⁻¹] | kon ([3]; read-out: kon) [M⁻¹ s⁻¹] | Kd [3] [pM] | binding to GAS6 (human GAS6) | koff [3] [s⁻¹] | kon [3] [M⁻¹ s⁻¹] | Compound | Stability in human plasma; 6 hours [%] [2] [%] | Stability in mouse plasma; 4 hours [%] [4] [%]
155000 |  |  |  |  |  |  | CC(=O)N[C@H](C(=O)NCC(=O)N[C@@H](CC(C)C)C(=O)N[C@H](C(=O)N[C@@H](CO)C(=O)N[C@@H](C)C(=O)NCC(=O)N[C@@H](Cc1c[nH]c2ccccc12)C(=O)N[C@@H](Cc1ccc(O)cc1)C(=O)N[C@@H](CC(=O)O)C(=O)N[C@@H](Cc1ccc(O)cc1)C(=O)N[C@@H](CC(N)=O)C(=O)N[C@@H](Cc1ccccc1)C(=O)N[C@@H](CC(=O)O)C(=O)N[C@H](C(=O)N[C@@H](Cc1ccc(O)cc1)C(=O)N[C@H](C(=O)N[C@@H](CCC(=O)O)C(=O)N[C@@H](Cc1ccccc1)C(=O)N[C@H](C(N)=O)[C@@H](C)O)[C@@H](C)O)[C@@H](C)O)C(C)C)[C@@H](C)O [JBS3188] (Ac-TGLVSAGWYDYNFDTYTEFT-NH2) |  | 
 | 0.000264 | 629000 | 400 |  |  |  | CC[C@H](C)[C@H](NC(=O)[C@H](CC(=O)O)NC(=O)[C@H](CCCCN)NC(=O)[C@H](CC(N)=O)NC(=O)[C@H](Cc1ccc(O)cc1)NC(=O)[C@H](CC(=O)O)NC(=O)[C@H](Cc1ccc(O)cc1)NC(=O)[C@H](Cc1c[nH]c2ccccc12)NC(=O)CNC(=O)[C@H](C)NC(=O)[C@@H](NC(=O)[C@@H](NC(=O)[C@@H](NC(=O)[C@H](Cc1ccc(O)cc1)NC(=O)[C@H](CCC(=O)O)NC(C)=O)[C@@H](C)CC)C(C)C)[C@@H](C)O)C(=O)N[C@@H](Cc1ccc(O)cc1)C(=O)N[C@@H](Cc1ccc(O)cc1)C(=O)N[C@@H](CCC(=O)O)C(=O)N[C@@H](Cc1ccccc1)C(=O)N[C@@H](CCCCN)C(N)=O [JBS3263] (Ac-EYIVTAGWYDYNKDIYYEFK-NH2) | 74 ± 12 | 56 ± 6
 | 0.000322 | 735000 | 400 |  |  |  | CC[C@H](C)[C@H](NC(=O)[C@H](C)NC(C)=O)C(=O)N[C@@H](Cc1ccc(O)cc1)C(=O)N[C@H](C(=O)N[C@H](C(=O)N[C@@H](C)C(=O)NCC(=O)N[C@@H](Cc1c[nH]c2ccccc12)C(=O)N[C@@H](Cc1ccc(O)cc1)C(=O)N[C@@H](CC(=O)O)C(=O)N[C@@H](Cc1ccc(O)cc1)C(=O)N[C@@H](CC(N)=O)C(=O)N[C@@H](CC(N)=O)C(=O)N[C@@H](CC(=O)O)C(=O)N[C@H](C(=O)N[C@@H](Cc1ccc(O)cc1)C(=O)N[C@@H](Cc1ccc(O)cc1)C(=O)N[C@@H](CCC(=O)O)C(=O)N[C@@H](Cc1ccccc1)C(=O)N[C@H](C(N)=O)[C@@H](C)O)[C@@H](C)O)[C@@H](C)O)C(C)C [JBS3283] (Ac-AIYVTAGWYDYNNDTYYEFT-NH2) | 90 ± 9 | 94 ± 6
 | 0.000402 | 1e+06 | 400 |  |  |  | CC(=O)N[C@@H](Cc1c[nH]cn1)C(=O)N[C@@H](Cc1c[nH]c2ccccc12)C(=O)N[C@@H](Cc1ccc(O)cc1)C(=O)N[C@H](C(=O)N[C@@H](CO)C(=O)N[C@@H](C)C(=O)NCC(=O)N[C@@H](Cc1c[nH]c2ccccc12)C(=O)N[C@@H](Cc1ccc(O)cc1)C(=O)N[C@@H](CC(=O)O)C(=O)N[C@@H](Cc1ccc(O)cc1)C(=O)N[C@@H](CC(N)=O)C(=O)N[C@@H](CCC(=O)O)C(=O)N[C@@H](CC(=O)O)C(=O)N[C@@H](CCCCN)C(=O)N[C@@H](Cc1ccc(O)cc1)C(=O)N[C@@H](Cc1ccc(O)cc1)C(=O)N[C@@H](CCC(=O)O)C(=O)N[C@@H](Cc1ccccc1)C(=O)N[C@@H](CCC(=O)O)C(N)=O)C(C)C [JBS3306] (Ac-HWYVSAGWYDYNEDKYYEFE-NH2) | 84 ± 12 | 80 ± 14
